# Measurements: patent publication US20220089575A1, “FARNESOID X RECEPTOR AGONISTS AND USES THEREOF” (Metacrine, Inc., priority 2017, published 2022)
# Target: T1, hFXR (Homo sapiens, UniProt Q96RI1)
# T1 construct: expressed in transfected cells; host or cells: CV-1 cells
# T1 sequence (Q96RI1 1-486): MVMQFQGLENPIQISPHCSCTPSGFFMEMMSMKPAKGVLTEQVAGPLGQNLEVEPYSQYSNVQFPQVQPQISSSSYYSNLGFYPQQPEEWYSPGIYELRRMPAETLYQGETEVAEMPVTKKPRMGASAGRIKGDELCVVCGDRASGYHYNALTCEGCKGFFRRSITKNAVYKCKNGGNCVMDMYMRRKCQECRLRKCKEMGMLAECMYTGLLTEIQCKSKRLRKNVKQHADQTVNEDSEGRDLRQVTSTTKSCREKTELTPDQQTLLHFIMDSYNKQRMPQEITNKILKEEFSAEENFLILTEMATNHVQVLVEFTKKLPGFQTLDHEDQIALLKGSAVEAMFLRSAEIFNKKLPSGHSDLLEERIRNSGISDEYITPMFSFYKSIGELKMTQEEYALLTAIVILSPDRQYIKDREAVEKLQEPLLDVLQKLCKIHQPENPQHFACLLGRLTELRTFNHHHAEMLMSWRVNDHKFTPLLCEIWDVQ
# T1 sequence (P19793 1-462 partner): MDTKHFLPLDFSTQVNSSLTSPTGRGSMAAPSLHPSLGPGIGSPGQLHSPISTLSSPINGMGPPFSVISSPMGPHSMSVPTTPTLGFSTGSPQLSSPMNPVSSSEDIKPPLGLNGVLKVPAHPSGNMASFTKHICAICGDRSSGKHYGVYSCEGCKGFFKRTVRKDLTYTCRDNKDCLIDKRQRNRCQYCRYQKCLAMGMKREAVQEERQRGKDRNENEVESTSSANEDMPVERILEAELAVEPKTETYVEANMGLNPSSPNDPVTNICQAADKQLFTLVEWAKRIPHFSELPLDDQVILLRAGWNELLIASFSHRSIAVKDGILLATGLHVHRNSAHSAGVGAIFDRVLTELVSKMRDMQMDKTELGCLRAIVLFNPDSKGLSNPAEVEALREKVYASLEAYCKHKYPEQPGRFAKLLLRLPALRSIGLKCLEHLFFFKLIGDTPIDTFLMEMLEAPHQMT
# Test: In Vitro FXR Assay (TK): TK-ECRE-luc reporter in transfected CV-1 cells
# Assay type: cell-based
# Details: 18 hrs, luminescence, maximum efficacy of <25% of the Fexarmine control classified as '+'
# In short: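 Reporter transactivation by hFXR was measured in CV-1 cells carrying hRXR and a TK-ECRE-luc construct, with compound treatment for 18 h before lysis and luminescence detection.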
row,Compound,EC50 [nM]
1,"COc1ccc([C@H]2CC[C@H](CN(c3cccc(-c4cnc(C5CC5)s4)c3)C(=O)[C@H]3CC[C@H](NC(=O)CNS(C)(=O)=O)CC3)CC2)cc1C [Compound 30.06, trans-N-(3-(2-Cyclopropylthiazol-5-yl)phenyl)-N-((trans-4-(4-methoxy-3-methylphenyl)cyclohexyl)methyl)-4-(2-(methylsulfonamido)acetamido) cyclohexanecarboxamide]",≤ 250
2,"COc1ccc([C@H]2CC[C@H](CN(c3cccc(-c4cnc(C5CC5)s4)c3)C(=O)[C@H]3CC[C@H](NC(=O)CCS(C)(=O)=O)CC3)CC2)cc1C [Compound 31.14, trans-N-(3-(2-Cyclopropylthiazol-5-yl)phenyl)-N-((trans-4-(4-methoxy-3-methylphenyl)cyclohexyl)methyl)-4-(3-(methylsulfonyl)propanamido) cyclohexanecarboxamide]",≤ 250
3,"COc1ccc([C@H]2CC[C@H](CN(c3cc(-c4cnn(C(C)C)c4)ccn3)C(=O)[C@H]3CC[C@H](CC(=O)O)CC3)CC2)cc1C [Compound 20.15, 2-(trans-4-((4-(1-Isopropyl-1H-pyrazol-4-yl)pyridin-2-yl)((trans-4-(4-methoxy-3-methylphenyl)cyclohexyl)methyl)carbamoyl)cyclohexyl)acetic acid]",≤ 250
4,"COc1ccc([C@H]2CC[C@H](CN(c3cc(-c4cnn(C(C)C)c4)ccn3)C(=O)[C@H]3CC[C@H](OC(=O)NCC(C)(C)O)CC3)CC2)nc1C [Compound 6.92, trans-4-((4-(1-Isopropyl-1H-pyrazol-4-yl)pyridin-2-yl)((trans-4-(5-methoxy-6-methylpyridin-2-yl)cyclohexyl)methyl)carbamoyl)cyclohexyl (2-hydroxy-2-methylpropyl)carbamate]",≤ 250
5,"COc1ccc([C@H]2CC[C@H](CN(c3cc(-c4coc(C5CC5)n4)ccn3)C(=O)[C@H]3CC[C@H](CC(=O)O)CC3)CC2)nc1C [Compound 21.07, 2-(trans-4-((4-(2-Cyclopropyloxazol-4-yl)pyridin-2-yl)((trans-4-(5-methoxy-6-methylpyridin-2-yl)cyclohexyl)methyl)carbamoyl)cyclohexyl) acetic acid]",≤ 250
6,"COc1ccc([C@H]2CC[C@H](CN(c3cccc(-c4cnc(C5CC5)s4)c3)C(=O)[C@H]3CC[C@H](OC(=O)N4CC(O)C4)CC3)CC2)nc1C#N [Compound 7.09, trans-4-(((trans-4-(6-Cyano-5-methoxypyridin-2-yl)cyclohexyl)methyl)(3-(2-cyclopropylthiazol-5-yl)phenyl)carbamoyl)cyclohexyl 3-hydroxyazetidine-1-carboxylate]",≤ 250
7,"COc1ccc([C@H]2CC[C@H](CN(c3cccc(-c4cnn(C5CC5)c4)c3)C(=O)[C@H]3CC[C@H](OC(=O)N4CC(NC(=O)OC(C)(C)C)C4)CC3)CC2)cc1C [Compound 7.38, trans-4-((3-(1-Cyclopropyl-1H-pyrazol-4-yl)phenyl)((trans-4-(4-methoxy-3-methylphenyl)cyclohexyl)methyl)carbamoyl)cyclohexyl 3-((tert-butoxycarbonyl)amino)azetidine-1-carboxylate]",≤ 250
8,"COc1ccc([C@H]2CC[C@H](CN(c3cccc(-c4cnn(C(C)C)c4)c3)C(=O)[C@H]3CC[C@H](OC(=O)N4CCN(C)CC4)CC3)CC2)nc1C [Compound 6.44, trans-4-((3-(1-Isopropyl-1H-pyrazol-4-yl)phenyl)((trans-4-(5-methoxy-6-methylpyridin-2-yl)cyclohexyl)methyl)carbamoyl)cyclohexyl 4-methylpiperazine-1-carboxylate]",≤ 250
9,"COc1ccc([C@H]2CC[C@H](CN(c3cc(-c4cnn(C5CC5)c4)ccn3)C(=O)[C@H]3CC[C@H](C(=O)O)CC3)CC2)nc1C [Compound 17.21, trans-4-((4-(1-Cyclopropyl-1H-pyrazol-4-yl)pyridin-2-yl)((trans-4-(5-methoxy-6-methylpyridin-2-yl)cyclohexyl)methyl)carbamoyl) cyclohexanecarboxylic acid]",≥ 1000
10,"CNC(=O)O[C@H]1CC[C@H](C(=O)N(CC23CCC(c4ccc(OC)c(C)c4)(CC2)CC3)c2cccc(-c3cc(C4CC4)ns3)c2)CC1 [Compound 2.08, 4-((3-(3-Cyclopropylisothiazol-5-yl)phenyl)((4-(4-methoxy-3-methylphenyl)bicyclo[2.2.2]octan-1-yl)methyl)carbamoyl)cyclohexyl trans-methylcarbamate]",≤ 250
11,"COc1ccc([C@H]2CC[C@H](CN(c3cccc(-c4cnn(C5CC5)c4)c3)C(=O)[C@H]3CC[C@H](NC(=O)C4CC(OC)C4)CC3)CC2)cc1C (stereo partly drawn) [Compound 30, trans-N-(3-(1-Cyclopropyl-1H-pyrazol-4-yl)phenyl)-N-((trans-4-(4-methoxy-3-methylphenyl)cyclohexyl)methyl)-4-(3-methoxycyclobutanecarboxamido)cyclohexanecarboxamide]",≤ 250
12,"COc1ccc([C@H]2CC[C@H](CN(c3cc(-c4coc(C5CC5)n4)ccn3)C(=O)[C@H]3CC[C@H](OC(=O)N(C)CC(C)(C)O)CC3)CC2)nc1C [Compound 6.86, trans-4-((4-(2-Cyclopropyloxazol-4-yl)pyridin-2-yl)((trans-4-(5-methoxy-6-methylpyridin-2-yl)cyclohexyl)methyl)carbamoyl)cyclohexyl (2-hydroxy-2-methylpropyl)(methyl)carbamate]",≤ 250
13,"CCOC(=O)C[C@H]1CC[C@H](C(=O)N(C[C@H]2CC[C@H](c3ccc(OC)c(C)n3)CC2)c2cccc(-c3cnn(C4CC4)c3)c2)CC1 [Compound 14, Ethyl 2-(trans-4-((3-(1-cyclopropyl-1H-pyrazol-4-yl)phenyl)((trans-4-(5-methoxy-6-methylpyridin-2-yl)cyclohexyl)methyl)carbamoyl)cyclohexyl)acetate]",≤ 250
14,"COc1ccc([C@H]2CC[C@H](CN(c3cccc(-c4cnc(C5CC5)s4)c3)C(=O)[C@H]3CC[C@H](NC(=O)CC[S+](C)[O-])CC3)CC2)cc1C (stereo partly drawn) [Compound 31.13, trans-N-(3-(2-Cyclopropylthiazol-5-yl)phenyl)-N-((trans-4-(4-methoxy-3-methylphenyl)cyclohexyl)methyl)-4-(3-(methylsulfinyl)propanamido) cyclohexanecarboxamide]",250 to 1000
15,"COc1ccc([C@H]2CC[C@H](CN(c3cccc(-c4cnn(C5CC5)c4)c3)C(=O)[C@H]3CC[C@H](OC(=O)N4CCN(C)CC4)CC3)CC2)cc1C [Compound 6.25, trans-4-((3-(1-Cyclopropyl-1H-pyrazol-4-yl)phenyl)((trans-4-(4-methoxy-3-methylphenyl)cyclohexyl)methyl)carbamoyl)cyclohexyl 4-methylpiperazine-1-carboxylate]",≤ 250
16,"COc1ccc([C@H]2CC[C@H](CN(c3cccc(-c4cnn(C5CC5)c4)c3)C(=O)[C@H]3CC[C@H](OC(=O)NC(CO)CO)CC3)CC2)cc1C [Compound 6.11, trans-4-((3-(1-Cyclopropyl-1H-pyrazol-4-yl)phenyl)((trans-4-(4-methoxy-3-methylphenyl)cyclohexyl)methyl)carbamoyl)cyclohexyl (1,3-dihydroxypropan-2-yl)carbamate]",≤ 250
17,"CCCCCOC(=O)[C@H]1CC[C@H](C(=O)N(C[C@H]2CC[C@H](c3ccc(OC)c(C)c3)CC2)c2cccc(-c3cnn(C4CC4)c3)c2)CC1 [Compound 22.03, trans-Pentyl 4-((3-(1-cyclopropyl-1H-pyrazol-4-yl)phenyl)((trans-4-(4-methoxy-3-methylphenyl)cyclohexyl)methyl)carbamoyl) cyclohexanecarboxylate]",≥ 1000
18,"COc1ncc(-c2cccc(N(C[C@H]3CC[C@H](c4ccc(OC)c(C)c4)CC3)C(=O)[C@H]3CC[C@H](CN)CC3)c2)s1 [Compound 25.03, trans-4-(Aminomethyl)-N-((trans-4-(4-methoxy-3-methylphenyl)cyclohexyl)methyl)-N-(3-(2-methoxythiazol-5-yl)phenyl)cyclohexanecarboxamide]",≥ 1000
19,"COc1ccc([C@H]2CC[C@H](CN(c3cccc(-c4cnn(C(C)C)c4)c3)C(=O)[C@H]3CC[C@H](OC(=O)NCCO)CC3)CC2)cc1C [Compound 6.09, trans-4-((3-(1-Isopropyl-1H-pyrazol-4-yl)phenyl)((trans-4-(4-methoxy-3-methylphenyl)cyclohexyl)methyl)carbamoyl)cyclohexyl (2-hydroxyethyl) carbamate]",≤ 250
20,"COc1ncc(-c2cccc(N(C[C@H]3CC[C@H](c4ccc(OC)c(C)c4)CC3)C(=O)[C@H]3CC[C@H](CO)CC3)c2)s1 [Compound 15.01, trans-4-(Hydroxymethyl)-N-((trans-4-(4-methoxy-3-methylphenyl)cyclohexyl)methyl)-N-(3-(2-methoxythiazol-5-yl)phenyl)cyclohexanecarboxamide]",≤ 250
